Paper PMC6097184 (Clinical cancer research : an official journal of the …, 2017)

Assays:
[1] = format: in vivo; conditions: human, po, 400 mg, range, 20 patients with glioblastoma, single oral dose 100, 200 or 400 mg
[2] = fraction unbound in plasma; format: in vitro ADME; conditions: human, patient plasma, fu,p, mean ± SD, plasma of 20 patients with glioblastoma
[3] = physicochemical parameters from literature; conditions: high permeability and low solubility
[4] = target: Wee1 tyrosine kinase; conditions: ref https://ncats.nih.gov/files/AZD1775.pdf; cited from earlier work
[5] = system: DNA damage and G2-checkpoint escape; conditions: ref https://ncats.nih.gov/files/AZD1775.pdf; cited from earlier work
[6] = target: T1, human OAT3 (Homo sapiens, UniProt Q8TCC7); assay: cellular uptake in HEK293 cells overexpressing OAT3
T1 sequence (Q8TCC7 1-542): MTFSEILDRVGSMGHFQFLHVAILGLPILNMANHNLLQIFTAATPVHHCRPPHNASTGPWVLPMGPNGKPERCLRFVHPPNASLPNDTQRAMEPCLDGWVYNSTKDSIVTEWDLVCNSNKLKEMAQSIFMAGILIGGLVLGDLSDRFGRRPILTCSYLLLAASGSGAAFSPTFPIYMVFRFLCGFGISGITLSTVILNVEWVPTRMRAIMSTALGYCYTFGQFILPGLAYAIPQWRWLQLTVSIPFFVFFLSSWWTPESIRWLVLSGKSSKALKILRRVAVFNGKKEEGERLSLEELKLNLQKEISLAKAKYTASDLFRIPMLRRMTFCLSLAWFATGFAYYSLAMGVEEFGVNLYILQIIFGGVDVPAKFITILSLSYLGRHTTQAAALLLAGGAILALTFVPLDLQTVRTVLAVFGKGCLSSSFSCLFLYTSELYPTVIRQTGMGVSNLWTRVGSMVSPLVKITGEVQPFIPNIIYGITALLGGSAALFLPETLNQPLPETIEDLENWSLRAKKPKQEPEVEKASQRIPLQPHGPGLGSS

[7] = target: T2, human OATP2B1 (Homo sapiens, UniProt O94956); assay: cellular uptake in HEK293 cells overexpressing OATP2B1; conditions: 10 μmol/L fluvastatin A
T2 sequence (O94956 1-709): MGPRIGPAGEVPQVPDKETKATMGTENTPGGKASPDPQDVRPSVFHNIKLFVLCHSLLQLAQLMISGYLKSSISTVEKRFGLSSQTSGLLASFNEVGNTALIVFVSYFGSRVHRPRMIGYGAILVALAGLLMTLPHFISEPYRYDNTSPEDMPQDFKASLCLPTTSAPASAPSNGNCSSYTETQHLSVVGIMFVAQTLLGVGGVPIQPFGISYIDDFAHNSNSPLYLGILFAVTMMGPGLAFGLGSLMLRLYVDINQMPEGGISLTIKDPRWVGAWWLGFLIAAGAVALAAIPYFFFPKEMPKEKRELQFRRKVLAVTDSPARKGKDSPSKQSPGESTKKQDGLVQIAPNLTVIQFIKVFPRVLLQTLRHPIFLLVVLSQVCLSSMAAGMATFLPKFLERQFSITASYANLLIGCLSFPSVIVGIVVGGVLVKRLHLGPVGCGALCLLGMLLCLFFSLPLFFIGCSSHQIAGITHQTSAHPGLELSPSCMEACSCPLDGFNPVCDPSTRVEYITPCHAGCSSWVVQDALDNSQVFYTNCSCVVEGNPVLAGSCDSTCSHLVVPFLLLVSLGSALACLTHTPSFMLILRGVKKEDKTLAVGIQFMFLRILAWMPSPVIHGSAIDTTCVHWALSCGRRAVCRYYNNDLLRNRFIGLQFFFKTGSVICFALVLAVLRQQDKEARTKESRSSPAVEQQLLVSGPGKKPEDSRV

Row | Compound | Kp ([1]; tumor / plasma (total), total tumor-to-plasma concentration ratio (Kp)) | Kp uu ([1]; tumor / plasma (unbound), unbound tumor-to-plasma concentration ratio (Kp,uu)) | fraction unbound [2] | Biopharmaceutics Classification System (BCS) class [3] | enzyme IC50 for inhibiting Wee1 activity [4] | IC50 for inducing DNA damage and G2-checkpoint escape in cell-based assays [5] | cellular uptake in OAT3 cells in presence of inhibitor ([6]; 50 μmol/L probenecid) | cellular uptake in HEK293 cells overexpressing OAT3 compared with vector control ([6]; no inhibitor) | cellular uptake in OATP2B1 cells in presence of inhibitor [7]
1 | C=CCn1c(=O)c2cnc(Nc3ccc(N4CCN(C)CC4)cc3)nc2n1-c1cccc(C(C)(C)O)n1 [AZD1775] | 3.8 to 40.4 | 1.3 to 24.4 | 0.182 ± 0.024 | class II | 0.0026 mg/L | ~0.04 mg/L |  |  | 
2 | C[C@]12CC[C@@H]3c4ccc(OS(=O)(=O)O)cc4CC[C@H]3[C@@H]1CCC2=O [estrone-3-sulfate] |  |  |  |  |  |  | reduced estrone-3-sulfate uptake to a level similar to that in the vector control | significantly higher | reduced estrone-3-sulfate uptake to a level similar to that in the vector control
